Laboratory results from patent publication US20080039422A1, “Vitamin B12-Containing Compositions and Methods of Use” (Transition Therapeutics Inc., priority 2004, published 2008).

How the values were obtained:
[1] = Stability of CN-Cbl solutions stored at room temperature (3 days, 2 weeks); format: physicochemical; details: for Conc of CN-Cbl: After 2 weeks at Room Temperature
Method: To determine the stability of the various solutions, the clarified stocks were aliquoted into fresh tubes and stored at room temperature, protected from light, for up to two weeks. Prior to measuring the concentrations of CN-Cbl on subsequent occasions, the tubes were centrifuged for ten minutes at rcf 16,100. The concentration of CN-Cbl was measured as described above by spectrophotometry.
In the experiments described above, the concentration of CN-Cbl was measured within an hour or two after the components of the solutions were initially combined. To determine the stability of the preparations, the concentrations of CN-Cbl were measured in individual excipients after three days and the concentrations of CN-Cbl in combined excipients were measured after two weeks. Tables 3A-3B are tables showing the concentrations of CN-Cbl (mg/ml) in various solutions after three days incubation at room temperature. Solutions containing 0-60% propylene glycol (Table 3A) and solutions containing 0-40% ethanol (Table 3B) were challenged with 50, 75, 100, and 125 mg/ml CN-Cbl. Table 4 is a table showing the concentrations of CN-Cbl in excipients containing ethanol and propylene glycol after two weeks incubation at room temperature. The solutions were challenged with either 50 or 75 mg/ml CN-Cbl and the excipients contained ethanol (10, 15, or 20%) and propylene glycol (20, 30, or 40%). […] Regardless of the diminution in concentration over time, however, it was hypothesized that the initial concentrations of CN-Cbl could be restored with an additional application of energy (e.g., mixing, heating, or both mixing and heating; see below).

[2] = Drug substance properties; format: physicochemical; details: 10 mg/ml aqueous solution
Method: Cyanocobalamin (CN-Cbl) is a cobalt containing vitamin and is reported to be sparingly soluble in water in the order of 1:80 or ˜12.5 mg/ml (Merck Index 1996). […] The material appears as dark red crystals or as an amorphous or crystalline red powder. It has a melting point of 300° C. and a molecular weight of 1355.38. The pH of a 10 mg/ml aqueous solution is 5.02.

Substance: cyanocobalamin [CN-Cbl]
- Conc of CN-Cbl ([1]; challenge 50 mg/mL, ethanol 10%, PG 20% (v/v)): 26680 µg/mL
- Conc of CN-Cbl ([1]; challenge 50 mg/mL, ethanol 10%, PG 30% (v/v)): 39460 µg/mL
- Conc of CN-Cbl ([1]; challenge 50 mg/mL, ethanol 10%, PG 40% (v/v)): 50650 µg/mL
- Conc of CN-Cbl ([1]; challenge 50 mg/mL, ethanol 15%, PG 20% (v/v)): 48720 µg/mL
- Conc of CN-Cbl ([1]; challenge 50 mg/mL, ethanol 15%, PG 30% (v/v)): 49780 µg/mL
- Conc of CN-Cbl ([1]; challenge 50 mg/mL, ethanol 15%, PG 40% (v/v)): 49390 µg/mL
- Conc of CN-Cbl ([1]; challenge 50 mg/mL, ethanol 20%, PG 20% (v/v)): 47080 µg/mL
- Conc of CN-Cbl ([1]; challenge 50 mg/mL, ethanol 20%, PG 30% (v/v)): 49780 µg/mL
- Conc of CN-Cbl ([1]; challenge 50 mg/mL, ethanol 20%, PG 40% (v/v)): 49870 µg/mL
- Conc of CN-Cbl ([1]; challenge 75 mg/mL, ethanol 10%, PG 20% (v/v)): 26910 µg/mL
- Conc of CN-Cbl ([1]; challenge 75 mg/mL, ethanol 10%, PG 30% (v/v)): 35210 µg/mL
- Conc of CN-Cbl ([1]; challenge 75 mg/mL, ethanol 10%, PG 40% (v/v)): 55660 µg/mL
- Conc of CN-Cbl ([1]; challenge 75 mg/mL, ethanol 15%, PG 20% (v/v)): 33280 µg/mL
- Conc of CN-Cbl ([1]; challenge 75 mg/mL, ethanol 15%, PG 30% (v/v)): 43310 µg/mL
- Conc of CN-Cbl ([1]; challenge 75 mg/mL, ethanol 15%, PG 40% (v/v)): 74280 µg/mL
- Conc of CN-Cbl ([1]; challenge 75 mg/mL, ethanol 20%, PG 20% (v/v)): 38390 µg/mL
- Conc of CN-Cbl ([1]; challenge 75 mg/mL, ethanol 20%, PG 30% (v/v)): 59620 µg/mL
- Conc of CN-Cbl ([1]; challenge 75 mg/mL, ethanol 20%, PG 40% (v/v)): 75820 µg/mL
- concentration of CN-Cbl ([1]; After 3 days at Room Temperature, challenge 50 mg/ml, PG 0% v/v): 13600 µg/mL
- concentration of CN-Cbl ([1]; After 3 days at Room Temperature, challenge 50 mg/ml, PG 10% v/v): 19500 µg/mL
- concentration of CN-Cbl ([1]; After 3 days at Room Temperature, challenge 50 mg/ml, PG 20% v/v): 25300 µg/mL
- concentration of CN-Cbl ([1]; After 3 days at Room Temperature, challenge 50 mg/ml, PG 30% v/v): 31000 µg/mL
- concentration of CN-Cbl ([1]; After 3 days at Room Temperature, challenge 50 mg/ml, PG 40% v/v): 50000 µg/mL
- concentration of CN-Cbl ([1]; After 3 days at Room Temperature, challenge 50 mg/ml, PG 50% v/v): 49900 µg/mL
- concentration of CN-Cbl ([1]; After 3 days at Room Temperature, challenge 50 mg/ml, PG 60% v/v): 51500 µg/mL
- concentration of CN-Cbl ([1]; After 3 days at Room Temperature, challenge 75 mg/ml, PG 0% v/v): 15000 µg/mL
- concentration of CN-Cbl ([1]; After 3 days at Room Temperature, challenge 75 mg/ml, PG 10% v/v): 20100 µg/mL
- concentration of CN-Cbl ([1]; After 3 days at Room Temperature, challenge 75 mg/ml, PG 20% v/v): 25800 µg/mL
- concentration of CN-Cbl ([1]; After 3 days at Room Temperature, challenge 75 mg/ml, PG 30% v/v): 30500 µg/mL
- concentration of CN-Cbl ([1]; After 3 days at Room Temperature, challenge 75 mg/ml, PG 40% v/v): 40500 µg/mL
- concentration of CN-Cbl ([1]; After 3 days at Room Temperature, challenge 75 mg/ml, PG 50% v/v): 67000 µg/mL
- concentration of CN-Cbl ([1]; After 3 days at Room Temperature, challenge 75 mg/ml, PG 60% v/v): 75800 µg/mL
- concentration of CN-Cbl ([1]; After 3 days at Room Temperature, challenge 100 mg/ml, PG 0% v/v): 14900 µg/mL
- concentration of CN-Cbl ([1]; After 3 days at Room Temperature, challenge 100 mg/ml, PG 10% v/v): 19500 µg/mL
- concentration of CN-Cbl ([1]; After 3 days at Room Temperature, challenge 100 mg/ml, PG 20% v/v): 25000 µg/mL
- concentration of CN-Cbl ([1]; After 3 days at Room Temperature, challenge 100 mg/ml, PG 30% v/v): 28800 µg/mL
- concentration of CN-Cbl ([1]; After 3 days at Room Temperature, challenge 100 mg/ml, PG 40% v/v): 37600 µg/mL
- concentration of CN-Cbl ([1]; After 3 days at Room Temperature, challenge 100 mg/ml, PG 50% v/v): 55900 µg/mL
- concentration of CN-Cbl ([1]; After 3 days at Room Temperature, challenge 100 mg/ml, PG 60% v/v): 97200 µg/mL
- concentration of CN-Cbl ([1]; After 3 days at Room Temperature, challenge 125 mg/ml, PG 0% v/v): 14500 µg/mL
- concentration of CN-Cbl ([1]; After 3 days at Room Temperature, challenge 125 mg/ml, PG 10% v/v): 20400 µg/mL
- concentration of CN-Cbl ([1]; After 3 days at Room Temperature, challenge 125 mg/ml, PG 20% v/v): 23100 µg/mL
- concentration of CN-Cbl ([1]; After 3 days at Room Temperature, challenge 125 mg/ml, PG 30% v/v): 28300 µg/mL
- concentration of CN-Cbl ([1]; After 3 days at Room Temperature, challenge 125 mg/ml, PG 40% v/v): 38600 µg/mL
- concentration of CN-Cbl ([1]; After 3 days at Room Temperature, challenge 125 mg/ml, PG 50% v/v): 46200 µg/mL
- concentration of CN-Cbl ([1]; After 3 days at Room Temperature, challenge 125 mg/ml, PG 60% v/v): 78700 µg/mL
- concentration of CN-Cbl ([1]; after three days at room temperature, challenge 50 mg/ml, EtOH 0% v/v): 13600 µg/mL
- concentration of CN-Cbl ([1]; after three days at room temperature, challenge 50 mg/ml, EtOH 10% v/v): 20500 µg/mL
- concentration of CN-Cbl ([1]; after three days at room temperature, challenge 50 mg/ml, EtOH 20% v/v): 26900 µg/mL
- concentration of CN-Cbl ([1]; after three days at room temperature, challenge 50 mg/ml, EtOH 30% v/v): 40000 µg/mL
- concentration of CN-Cbl ([1]; after three days at room temperature, challenge 50 mg/ml, EtOH 40% v/v): 47600 µg/mL
- concentration of CN-Cbl ([1]; after three days at room temperature, challenge 75 mg/ml, EtOH 0% v/v): 15000 µg/mL
- concentration of CN-Cbl ([1]; after three days at room temperature, challenge 75 mg/ml, EtOH 10% v/v): 23000 µg/mL
- concentration of CN-Cbl ([1]; after three days at room temperature, challenge 75 mg/ml, EtOH 20% v/v): 26100 µg/mL
- concentration of CN-Cbl ([1]; after three days at room temperature, challenge 75 mg/ml, EtOH 30% v/v): 43000 µg/mL
- concentration of CN-Cbl ([1]; after three days at room temperature, challenge 75 mg/ml, EtOH 40% v/v): 53400 µg/mL
- concentration of CN-Cbl ([1]; after three days at room temperature, challenge 100 mg/ml, EtOH 0% v/v): 14900 µg/mL
- concentration of CN-Cbl ([1]; after three days at room temperature, challenge 100 mg/ml, EtOH 10% v/v): 24000 µg/mL
- concentration of CN-Cbl ([1]; after three days at room temperature, challenge 100 mg/ml, EtOH 20% v/v): 27800 µg/mL
- concentration of CN-Cbl ([1]; after three days at room temperature, challenge 100 mg/ml, EtOH 30% v/v): 34500 µg/mL
- concentration of CN-Cbl ([1]; after three days at room temperature, challenge 100 mg/ml, EtOH 40% v/v): 46100 µg/mL
- concentration of CN-Cbl ([1]; after three days at room temperature, challenge 125 mg/ml, EtOH 0% v/v): 14500 µg/mL
- concentration of CN-Cbl ([1]; after three days at room temperature, challenge 125 mg/ml, EtOH 10% v/v): 21500 µg/mL
- concentration of CN-Cbl ([1]; after three days at room temperature, challenge 125 mg/ml, EtOH 20% v/v): 28400 µg/mL
- concentration of CN-Cbl ([1]; after three days at room temperature, challenge 125 mg/ml, EtOH 30% v/v): 37900 µg/mL
- concentration of CN-Cbl ([1]; after three days at room temperature, challenge 125 mg/ml, EtOH 40% v/v): 50900 µg/mL
- pH of aqueous solution [2]: 5.02
